Earlier results on three compounds are cited in patent US11094527B2, “Wet clean solutions to prevent pattern collapse” (INTERNATIONAL BUSINESS MACHINES CORPORATION, priority 2018, dated 2021).

Assay in data set [1]: not given
The source holds these as a separate data set.

Read-outs that look alike come from different tables or passages of the source.

With `c1ccccc1` [Benzene], the “Surface tension (at about 20° C.)” value is reported as less than 30 mN/m.
Regarding `CC(C)O` [Isopropyl alcohol, reference compound], the “Surface tension (at about 20° C.)” value is on record as less than 30 mN/m. Moreover, the “Water solubility (in words)” value in data set [1] is given as “miscible in water”. The Water solubility result in data set [1] (temperature not given) is “Miscible”.
For Diethyl ether, the “Surface tension (at about 20° C.)” value is reported as 16.5 mN/m. The “Water solubility (in words)” value in data set [1] is listed as “low water solubility”. Moreover, the Water solubility in data set [1] (20° C.) is reported as 6.9 g/100 mL.
